For experiment [1], the target named is Full-length PRMT5 enzyme co-expressed with His6-MEP50 (Homo sapiens (Human), UniProt O14744). As to the kind of experiment: PRMT5 Biochemical Assay. The conditions noted are these: Transcreener EPIGEN methyltransferase assay, histone H4 derived peptide substrate, 4 hours at 37 degree Celsius. The protocol:
Compounds of the invention may be tested for in vitro activity in the following assay:
A histone H4 derived peptide is used as substrate (amino acid sequence: […]NH2). Full-length PRMT5 enzyme (NCBI Reference sequence NP_006100.2) was co-expressed with His6-MEP50 in insect cells and purified via Nickel immobilized metal affinity and gel filtration chromatography (“the enzyme”).
The 6 μL reactions are run in Greiner brand black 384-well low volume assay plates. All reactions contained assay buffer (phosphate buffered saline, 0.01% (v/v) Tween-20, 0.01% (w/v) albumin from chicken egg white, 1 mM Dithiothreitol, 1 μM peptide substrate, 1 μM S-Adenosyl methionine, and 15 ng/reaction enzyme, with the enzyme being omitted from negative control reactions. Compounds were added in a volume of 100 nL from dilution series prepared in DMSO, positive and negative control reactions receiving the same volume DMSO without compound. The plates were sealed with adhesive seals and incubated for 4 hours at 37 degree Celsius. Reaction progress was measured using the Transcreener™ EPIGEN methyltransferase assay (BellBrook Labs, Madison, Wis.) as recommended by the manufacturer. To each reaction 2 μL detection mix were added, containing coupling enzymes, fluorescence polarisation tracer, and AMP antibody. Plates were incubated for 90 minutes before being read on a PerkinElmer EnVision™ plate reader in fluorescence polarisation mode. IC50 values were obtained from the raw readings by calculating percent inhibition (%1) for each reaction relative to controls on the same plate (% I=(I−CN)/(CP−CN) where CN/CP are the averages of the negative/positive reactions, respectively), then fitting the %1 data vs. compound concentration [I] to % I=(A+((B−A)/(1+((C/[I])^D)))) where A is the lower asymptote, B is the upper asymptote, C is the IC50 value, and D is the slope.

Experiment [2] has as its system symmetrical dimethylation of arginine (Di-Methyl Histone H4 Arginine 3) in cell line TE11. The experiment in a line: PRMT5 Biomarker Assay. It counts as cell-based. The following applies: Homo sapiens, TE-11; TE11 cells, 72 hours incubation, mean Alexa647-related intensity per cell. The protocol: PRMT5 Biomarker Assay Compounds of the invention may be tested for potency to inhibit symmetrical dimethylation of arginine in the following assay: The cell line TE11 was seeded at a density of 6,000 cells per well in 96 well optical quality tissue culture plates in DME medium and 10% foetal bovine serum, and allowed to adhere for 5 hours under standard culture conditions (37 degree Celsius, 5% CO2). Compound dilutions prepared in DMSO were added to the medium, with negative control wells reserved for treatment with DMSO only and maximum inhibition controls receiving a potent PRMT5 inhibitor compound at 1 μM concentration. After incubation for 72 hours, the cells were fixed with 3.7% formaldehyde in PBS for 30 minutes at room temperature, washed with phosphate buffer saline and blocked with Odyssey blocking buffer (LI-COR, Lincoln, Nebr.). Rabbit anti-Di-Methyl Histone H4 Arginine 3 specific antibody (Epigentek) in Odyssey blocking buffer was added and incubated for 14 hours at 4 degree Celsius. After washing, anti-rabbit secondary antibody labelled with Alexa647 dye (LifeTechnologies) and Hoechst 33342 (1 μg/mL, SigmaAldrich) were added for 1 hour incubation. Plates were washed and read on a PerkinElmer Envision 2103 in fluorescence intensity scanning mode (24 scans across the well area). The plates were imaged on a PerkinElmer Phenix high content imaging platform. Using a Columbus image analysis pipeline, individual nuclei were located by Hoechst 33342 stain and the methylation level was calculated from the Alexa647-related intensity in the same area. IC50 values were obtained from the mean Alexa647-related intensity per cell by calculating percent inhibition (%1) for each well relative to controls on the same plate (% l=(1-CN)/(CP−CN) where CN/CP are the averages of the negative/maximum inhibition controls, respectively), then fitting the %1 data vs. compound concentration [I] to % I=(A+((B−A)/(1+((C/[I])^D)))) where A is the lower asymptote, B is the upper asymptote, C is the IC50 value, and D is the slope.

Counter-ions that a name gives are not always drawn.

Consider 9 molecules from US10787434B2, “Benzopiperdine derivatives and their use in the treatment of cancer and hemoglobinopathies” (CTXT PTY LTD, priority 2016, dated 2020).

Sequence of Full-length PRMT5 enzyme co-expressed with His6-MEP50 (O14744 whole entry): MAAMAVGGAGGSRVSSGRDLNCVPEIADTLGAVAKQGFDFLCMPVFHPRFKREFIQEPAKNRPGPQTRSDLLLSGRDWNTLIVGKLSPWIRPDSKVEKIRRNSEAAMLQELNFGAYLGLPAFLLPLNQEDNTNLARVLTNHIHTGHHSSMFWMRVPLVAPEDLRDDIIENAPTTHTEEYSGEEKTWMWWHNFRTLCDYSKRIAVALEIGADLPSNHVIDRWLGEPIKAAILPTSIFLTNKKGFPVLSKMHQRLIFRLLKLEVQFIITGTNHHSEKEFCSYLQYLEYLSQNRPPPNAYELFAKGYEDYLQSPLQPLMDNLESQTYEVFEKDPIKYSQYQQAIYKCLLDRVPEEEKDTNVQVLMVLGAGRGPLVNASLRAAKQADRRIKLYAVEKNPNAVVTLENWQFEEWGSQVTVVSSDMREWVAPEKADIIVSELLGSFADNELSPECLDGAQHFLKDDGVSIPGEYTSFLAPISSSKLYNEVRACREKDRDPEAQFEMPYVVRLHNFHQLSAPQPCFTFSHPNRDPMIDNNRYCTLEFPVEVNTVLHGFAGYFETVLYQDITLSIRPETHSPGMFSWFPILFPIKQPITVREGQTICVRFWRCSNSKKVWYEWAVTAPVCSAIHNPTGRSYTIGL
Sequence of Full-length PRMT5 enzyme co-expressed with His6-MEP50 (Q9BQA1 whole entry partner): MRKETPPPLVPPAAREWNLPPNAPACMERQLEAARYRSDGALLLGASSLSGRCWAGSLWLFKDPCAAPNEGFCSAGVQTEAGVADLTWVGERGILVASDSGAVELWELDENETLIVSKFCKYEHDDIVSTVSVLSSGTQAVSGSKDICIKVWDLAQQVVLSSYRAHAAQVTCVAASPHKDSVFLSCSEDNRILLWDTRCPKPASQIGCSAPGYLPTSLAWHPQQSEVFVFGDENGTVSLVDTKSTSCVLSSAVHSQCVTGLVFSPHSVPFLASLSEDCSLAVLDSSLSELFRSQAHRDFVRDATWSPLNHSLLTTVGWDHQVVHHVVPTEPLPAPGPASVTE

As to `CCOc1nc(N2CCN(C(=O)OC)CC2)ccc1C(=O)NC[C@@H](O)[C@@H]1Cc2ccccc2CN1` [Example 1, Methyl 4-(6-ethoxy-5-(((R)-2-hydroxy-2-((S)-1,2,3,4-tetrahydroisoquinolin-3-yl)ethyl)carbamoyl)pyridin-2-yl)piperazine-1-carboxylate dihydrochloride], the IC50 in experiment [1] was determined as 37 nM; in experiment [2], 0.2 nM.

For the molecule `CCOc1nc(N2CCCOCC2)ccc1C(=O)NC[C@@H](O)[C@@H]1Cc2ccccc2CN1` [Example 3, 2-Ethoxy-N-((R)-2-hydroxy-2-((S)-1,2,3,4-tetrahydroisoquinolin-3-yl)ethyl)-6-(1,4-oxazepan-4-yl)nicotinamide dihydrochloride], the IC50 in experiment [1] came out at 70 nM; in experiment [2], 5.6 nM.

With `CCOc1cnc(CC2CCN(C(C)=O)CC2)cc1C(=O)NC[C@@H](O)[C@@H]1Cc2ccccc2CN1` [Example 6, 2-((1-acetylpiperidin-4-yl)methyl)-5-ethoxy-N-((R)-2-hydroxy-2-((S)-1,2,3,4-tetrahydroisoquinolin-3-yl)ethyl)isonicotinamide dihydrochloride], the IC50 in experiment [1] is 202 nM; in experiment [2], 75.4 nM.

For the molecule `CCOc1nc(N2CCN(C(C)=O)CC2)ccc1C(=O)NC[C@@H](O)[C@@H]1Cc2ccccc2CN1` [Example 4, 6-(4-Acetylpiperazin-1-yl)-2-ethoxy-N-((R)-2-hydroxy-2-((S)-1,2,3,4-tetrahydroisoquinolin-3-yl)ethyl)nicotinamide dihydrochloride], the IC50 in experiment [1] is 26 nM; in experiment [2] it was 1.3 nM.

For `CCOc1nc(OC2CCN(C(C)=O)CC2)ccc1C(=O)NC[C@@H](O)[C@@H]1Cc2ccccc2CN1` [Example 7, 6-((1-acetylpiperidin-4-yl)oxy)-2-ethoxy-N-((R)-2-hydroxy-2-((S)-1,2,3,4-tetrahydroisoquinolin-3-yl)ethyl)nicotinamide hydrochloride salt], the IC50 in experiment [1] turned out to be 135 nM; in experiment [2], 16.5 nM.

With `CCOc1nc(N2CCC(O)CC2)ccc1C(=O)NC[C@@H](O)[C@@H]1Cc2ccccc2CN1` [Example 2, 2-Ethoxy-N-((R)-2-hydroxy-2-((S)-1,2,3,4-tetrahydroisoquinolin-3-yl)ethyl)-6-(4-hydroxypiperidin-1-yl)nicotinamide dihydrochloride], the figures for the IC50 in experiment [1] and in experiment [2] were 102 nM and 23.3 nM, respectively.

As for `CCOc1nc(N2CCOCC2)ccc1C(=O)NC[C@@H](O)[C@@H]1Cc2ccccc2CN1` [Example 9, 2-Ethoxy-N—((R)-2-hydroxy-2-((S)-1,2,3,4-tetrahydroisoquinolin-3-yl)ethyl)-6-morpholinonicotinamide], the IC50 in experiment [1] came to 251 nM; in experiment [2] it was 31.5 nM.

Consider `CC(=O)N1CCC(Oc2nccc(C(=O)NC[C@@H](O)[C@@H]3Cc4ccccc4CN3)c2Cl)CC1` [Example 5, 2-((1-Acetylpiperidin-4-yl)oxy)-3-chloro-N-((R)-2-hydroxy-2-((S)-1,2,3,4-tetrahydroisoquinolin-3-yl)ethyl)isonicotinamide dihydrochloride], for which the IC50 in experiment [1] came to 26 nM; in experiment [2] it was 6 nM.

As for `CCOc1c(C(=O)NC[C@@H](O)[C@@H]2Cc3ccccc3CN2)ccnc1NC1CCN(C(C)=O)CC1` [Example 8, 2-((1-Acetylpiperidin-4-yl)amino)-3-ethoxy-N—((R)-2-hydroxy-2-((S)-1,2,3,4-tetrahydroisoquinolin-3-yl)ethyl)isonicotinamide Dihydrochloride Salt], the values for the IC50 in experiment [1] and in experiment [2] were 135 nM and 112 nM, respectively.
